Source: article PMC6449294, “SNAPshots of the MCHR1: a Comparison Between the PET-Tracers [^18F]FE@SNAP and [^11C]SNAP-7941” (Molecular Imaging and Biology, 2018)

Experiments:
[1] = target: T1, MCHR1 (Rattus norvegicus, UniProt P97639); experiment: Small animal PET displacement study with (±)-SNAP-7941 (time-activity curves); assay type: in vivo; conditions: rats; for change of brown adipose tissue (BAT) TAC after administration of (±)-SNAP-7941 / change of lung TAC after displacement: 15 mg/kg (±)-SNAP-7941; for displacement in whole brain (TAC): 15 mg/kg (±)-SNAP-7941 i.v. 15 or 20 min after tracer
T1 construct: from tissue; host or cells: living Sprague-Dawley rats (PET) and their organs after sacrifice
Method: (§1) Ten-week-old male rats (412 ± 58 g, Sprague-Dawley, HIM:OFA, n = 30) and 12-week-old male mice (24 ± 6 g, BALB/cAnNRj, n = 7) were purchased from the Division of Laboratory Animal Science and Genetics, Himberg, Austria. Animals were kept under conventional housing conditions (22 ± 1 °C; 40–70 % humidity) with food and water supply ad libitum and 12-h day/night cycle. All animals were treated according to the European Union rules on animal care and respective animal experiments were approved by the Austrian Ministry of Sciences, Research and Economy (BMWFW-66.009/0029-WF/V/3b/20159). For in vivo imaging, animals were anesthetized using 1.5–2 % isoflurane mixed with oxygen (1.5–2 l/min) to avoid movement during the examination. Anesthesia as well as vital parameters were monitored during the time interval of PET acquisition. Radioligands and non-labeled compounds were administered intravenously via the lateral tail vein.
Anesthetized rats and mice were immobilized in a multimodal animal carrier unit (MACU; medres®—medical research GmbH, Cologne, Germany). The body temperature was preserved at 37 °C throughout the whole experiment. Rats received either [^11C]SNAP-7941 or [^18F]FE@SNAP, followed by an injection of (±)-SNAP-7941 (15-mg/kg body weight; displacement study; n = 4 for each radiotracer) or the respective solvent serving as the vehicle (baseline condition; n = 4 for each radiotracer). The MCHR1 antagonist, (±)-SNAP-7941, and the vehicle were administered either 15 ([^11C]SNAP-7941) or 20 min ([^18F]FE@SNAP) after the radiotracer application via the lateral tail vein. To investigate a potential binding to the P-glycoprotein (P-gp) and/or breast cancer resistance protein (BCRP) brain efflux transporter system, rats as well as mice were pretreated either with the P-gp/BCRP inhibitor TQD (15 mg/kg body weight; P-gp/BCRP inhibition group; rats: n = 4 for each radiotracer; mice: n = 4 for [^18F]FE@SNAP) or the respective solvent (baseline condition; rats: n = 3 for each radiotracer; mice: n = 3 for [^18F]FE@SNAP)). Mice received the P-gp/BCRP inhibitor 30 min and rats 60 min before the radiotracer application. Experiments were initiated with a 7-min cone beam attenuation CT (CBCT) of the brain (full rotation, 360 projections; binning 4 × 4; 80 kV; 500 μA; 200-ms exposure time) using a small animal cone beam computed tomography (CBCT) scanner (Siemens Inveon microSPECT/CT, Siemens Medical Solutions, Knoxville, USA). Subsequently, the animals were positioned in the Siemens Inveon microPET scanner (Siemens Medical Solution, Knoxville, USA). The radiotracers were injected intravenously, and dynamic PET imaging was performed for 45 min (rats) in case of [^11C]SNAP-7941 (77.46 ± 5.41 MBq; molar activity 76.66 ± 23.58 GBq/μmol; radiochemical purity > 99 %) and 30 min (mice)—60 min (rats) for [^18F]FE@SNAP (47.08 ± 6.24 MBq; molar activity 22.18 ± 9.72 GBq/μmol; radiochemical purity > 90 %).
Image reconstruction of the CT raw data was performed with a Feldkamp algorithm using a ramp filter followed by standard rat beam-hardening correction and noise reduction (matrix size 1024 × 1024; effective pixel size: 97.56 μm). All CT image data was calibrated to Hounsfield units (HU). PET list mode data were sorted into three-dimensional sinograms according to the following frame sequences, [^11C]SNAP-7941: 1 × 3 s, 3 × 2 s, 1 × 6 s, 1 × 15 s, 1 × 35 s, 1 × 145 s, 1 × 270 s, 1 × 285 s, 1 × 165 s, 3 × 30 s, 1 × 120 s, 1 × 240 s, 1 × 420 s, 1 × 900 s and for [^18F]FE@SNAP: 1 × 2 s, 1 × 3 s, 1 × 5 s, 3 × 10 s, 1 × 20 s, 1 × 60 s, 1 × 120 s, 4 × 240 s, 4 × 600 s. PET image reconstruction were performed using an OSEM 3D/OP-MAP with scatter correction and a ramp filter (matrix size 128 × 128). Image data were normalized and corrected for random events, dead time, and radioactive decay. A calibration factor was applied to convert the activity information into absolute concentration units. […]

[2] = set-up: method as in earlier work; conditions: ultrafiltration, human pooled plasma; ref 30 and 34 (table), 32 and 36; cited from earlier work
[3] = set-up: method as in earlier work; conditions: previous studies; ref 30 and 34 (table), 32 and 36; cited from earlier work
[4] = test system: P-gp/BCRP; experiment: Small animal PET of rat brain, vehicle vs pretreatment with P-gp/BCRP inhibitor TQD; assay type: in vivo; conditions: for increase of brain uptake in TQD blocking group vs vehicle: rats, TQD 15 mg/kg 60 min before radiotracer, PET
Method: as §1
Anesthetized rats and mice were immobilized in a multimodal animal carrier unit (MACU; medres®—medical research GmbH, Cologne, Germany). The body temperature was preserved at 37 °C throughout the whole experiment. Rats received either [^11C]SNAP-7941 or [^18F]FE@SNAP, followed by an injection of (±)-SNAP-7941 (15-mg/kg body weight; displacement study; n = 4 for each radiotracer) or the respective solvent serving as the vehicle (baseline condition; n = 4 for each radiotracer). The MCHR1 antagonist, (±)-SNAP-7941, and the vehicle were administered either 15 ([^11C]SNAP-7941) or 20 min ([^18F]FE@SNAP) after the radiotracer application via the lateral tail vein. To investigate a potential binding to the P-glycoprotein (P-gp) and/or breast cancer resistance protein (BCRP) brain efflux transporter system, rats as well as mice were pretreated either with the P-gp/BCRP inhibitor TQD (15 mg/kg body weight; P-gp/BCRP inhibition group; rats: n = 4 for each radiotracer; mice: n = 4 for [^18F]FE@SNAP) or the respective solvent (baseline condition; rats: n = 3 for each radiotracer; mice: n = 3 for [^18F]FE@SNAP)). […]

[5] = target: T1, MCHR1; experiment: Ex vivo biodistribution, vehicle vs displacement with (±)-SNAP-7941; assay type: in vivo; conditions: 15 mg/kg (±)-SNAP-7941
Description: After the imaging studies, the animals were sacrificed by decapitation; blood and tissues were removed and collected in tubes, weighed, and subjected to radioactivity measurements in a Gamma Counter (2480 WIZARD^2, PerkinElmer, Waltham, MA, USA). Values were normalized to the applied dose, the organ, and body weight and expressed as the standardized uptake value (SUV [g/ml]).

[6] = Ex vivo metabolites in rat brain (radio-HPLC)
Method: For the analysis of potential radiometabolites, blood samples (50–80 μl) from rats were withdrawn at 10 and 45 min for [^11C]SNAP-7941 and at 10, 30, and 60 min for [^18F]FE@SNAP and immediately subjected to the equivalent amount of acetonitrile, homogenized, and stored on ice before processing. Additionally, [^18F]FE@SNAP was administered to three rats, which were sacrificed after 45 min. Whole brains were harvested and homogenized with equivalent amounts (500–800 μl) of acetonitrile and 0.9 % saline solution using an ULTRA-TURRAX® (T25 basic, IKA Laboratory Equipment, Staufen, Germany). Subsequently, blood and brain were centrifuged (23,000 ×g, 4 min, 4 °C; Hettich Universal 30RF, Tuttlingen, Germany), and the obtained supernatant was analyzed by an analytical HPLC equipped with a radioactivity detector (radio-HPLC) (stationary phase: Chromolith® Performance RP-18e, 100–4.6 mm; precolumn: Chromolith® Guard Cartridge RP-18e, 5–4.6 mm; Merck, Darmstadt, Germany), mobile phase: (water/acetic acid 97.5/2.5 v/v; 2.5 g/l ammonium acetate; pH 3.5)/acetonitrile 70/30 v/v; flow: 1 ml/min, λ = 254 nm). The ratio between metabolite and intact radiotracer was calculated using quantitative HPLC analysis.

T1 sequence (P97639 whole entry): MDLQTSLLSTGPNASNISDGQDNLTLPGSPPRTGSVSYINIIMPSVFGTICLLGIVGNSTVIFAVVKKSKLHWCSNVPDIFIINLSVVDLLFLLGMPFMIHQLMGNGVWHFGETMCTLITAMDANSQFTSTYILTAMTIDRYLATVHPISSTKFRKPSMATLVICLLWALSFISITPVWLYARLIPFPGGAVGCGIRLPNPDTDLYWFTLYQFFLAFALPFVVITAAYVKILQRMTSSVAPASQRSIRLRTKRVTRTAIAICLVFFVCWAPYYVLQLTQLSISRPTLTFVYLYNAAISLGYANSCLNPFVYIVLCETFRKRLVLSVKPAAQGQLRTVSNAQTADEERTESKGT

Compound	change of brown adipose tissue (BAT) TAC after administration of (±)-SNAP-7941 [1]	change of lung TAC after displacement [1]	displacement in whole brain (TAC) [1]	Plasma free fraction (human) [2] [%]	Lipophilicity (logD) [3]	P-gp/BCRP substrate status ([4]; rat brain PET after TQD pretreatment, result in words)	increase of brain uptake in TQD blocking group vs vehicle [4] [times]	difference in colon uptake between vehicle and displacement groups [5]	difference in eye uptake between vehicle and displacement groups [5]	difference in pancreas uptake between vehicle and displacement groups [5]	overall biodistribution: uptake in target regions after displacement [5]	intact tracer in rat brain ([6]; 45 min) [%]	Metabolism in rat brain ([6]; ex vivo, result in words)
COCC1=C(C(=O)O[11CH3])C(c2ccc(F)c(F)c2)N(C(=O)NCCCN2CCC(c3cccc(NC(C)=O)c3)CC2)C(=O)N1 (centres unmarked) [[^11C]SNAP-7941]	increased uptake	drop in the TAC	clear displacement	20.96 ± 1	3.29 ± 0.01	P-gp/BCRP substrate	3.04	Statistically significant differences	Statistically significant differences	Statistically significant differences	decreased uptake	–	–
COCC1=C(C(=O)OCC[18F])C(c2ccc(F)c(F)c2)N(C(=O)NCCCN2CCC(c3cccc(NC(C)=O)c3)CC2)C(=O)N1 (centres unmarked) [[^18F]FE@SNAP]	increased uptake	drop in the TAC	displacement could not be detected	12.6 ± 0.2	3.83 ± 0.1	–	2.45	no statistically significant difference	significant differences	significant differences	decreased uptake	22.37 ± 5.8	Rapidly metabolized
